Assay results reported in patent publication US10065984B2, “Polymorphic forms of a steroid-like compound and methods for the preparation and use thereof” (Allergan, Inc., priority 2013, dated 2018).

Key:
[1] = Conversion of substantially amorphous material to crystalline Form 1 at elevated temperature and/or humidity; assay type: physicochemical
From the text: In certain embodiments, a substantially amorphous form of the steroid-like compound contemplated for use herein can be converted into crystalline Form 1 by subjecting said amorphous material to elevated temperatures and/or elevated humidity sufficient to promote the desired conversion.
As used herein, “substantial portion thereof” refers to the major portion of the sample in question, i.e., greater than 50% of the sample, undergoes conversion from the amorphous form thereof to crystalline Form 1; in some embodiments, greater than 60% of the sample undergoes conversion from the amorphous form thereof to crystalline Form 1; in some embodiments, greater than 70% of the sample undergoes conversion from the amorphous form thereof to crystalline Form 1; in some embodiments, greater than 80% of the sample undergoes conversion from the amorphous form thereof to crystalline Form 1; in some embodiments, greater than 90% of the sample undergoes conversion from the amorphous form thereof to crystalline Form 1.

[2] = Storage stability of crystalline Form 1, XRPD spectrum before and after storage; assay type: physicochemical
Procedure: X-Ray Powder Diffraction patterns were collected on a Bruker D8 diffractometer using Cu Kα radiation (40 kV, 40 mA), θ-2θ goniometer, and divergence of V4 and receiving slits, a Ge monochromator and a Lynxeye detector. Samples were run under ambient conditions as flat plate specimens. The sample was gently packed into a cavity cut into polished, zero-background (510) silicon wafer. The parameters of the data collection are: • Angular range: 2 to 42°2θ • Step size: 0.05°2θ • Collection time: 0.5 s/step
A sample of the steroid-like compound in crystalline Form 1 was stored for 7 days at 40° C. and 75% relative humidity. After that time an XRPD spectrum was obtained and compared to the XRPD spectrum of the sample before the storage at the elevated temperature and humidity. […] Similarly, another sample of the steroid-like compound in crystalline Form 1 was stored for 1 year at room temperature (21° C. and uncontrolled relative humidity).

Compound	solid form conversion on exposure ([1]; 75% relative humidity at about 40° C. for about 1 week)	solid form conversion on exposure ([1]; 97% relative humidity at room temperature (about 25° C.) for about 2 weeks)	solid form conversion on exposure ([1]; temperature higher than about 110° C. for at least about 1 hour)	change in the XRPD spectrum after storage ([2]; stored for 1 year at room temperature (21° C. and uncontrolled relative humidity))	change in the XRPD spectrum after storage ([2]; stored for 7 days at 40° C. and 75% relative humidity)
C[C@]12CCC(=O)C=C1CC[C@@H]1[C@@H]2[C@@H](O)C[C@@]2(C)[C@H]1CC[C@]2(OC(=O)c1ccccc1)C(=O)CO [substantially amorphous form]	conversion of a substantial portion thereof to crystalline Form 1	conversion of a substantial portion thereof to crystalline Form 1	conversion of a substantial portion thereof to crystalline Form 1	–	–
C[C@]12CCC(=O)C=C1CC[C@@H]1[C@@H]2[C@@H](O)C[C@@]2(C)[C@H]1CC[C@]2(OC(=O)c1ccccc1)C(=O)CO [crystalline Form 1]	–	–	–	no change	No noticeable change
